Results taken from US20250302765A1, “TRIACETYL ANDROGRAPHOLIDE NANOCRYSTAL AND PREPARATION METHOD AND APPLICATION THEREOF” (Henan University, priority 2024, published 2025).

Assays:
[1] = set-up: species or system SD rats; details: rat, in vivo, po, 200 mg/kg
Description: The triacetyl andrographolide nanocrystal obtained in Example 1 was adopted, and a total of 12 SD rats were used as test objects (half female and half male, 200±20 g).
The rats were randomly divided into 2 groups (n=6, half female and half male) by body weight before a test was started. The test was carried out after fasting without water-deprivation for 12 h, one group was fed with a triacetyl andrographolide active pharmaceutical ingredient suspension (dosage of 200 mg/kg) via intragastric administration, and the other group was fed with a triacetyl andrographolide nanocrystal suspension (50 mg/kg by triacetyl andrographolide) via intragastric administration.
With an active pharmaceutical ingredient as reference, relative bioavailability of the triacetyl andrographolide nanocrystal was calculated according to the following formula:
[formula] • where AUC0-t, nanocrystal and AUC0-t, active pharmaceutical ingredient corresponded to areas under the plasma concentration-time curves at a moment 0-t of the triacetyl andrographolide nanocrystal and the active pharmaceutical ingredient respectively; and
Doseactive pharmaceutical ingredient and Dosenanocrystal corresponded to intragastric administration dosages of the triacetyl andrographolide active pharmaceutical ingredient and the nanocrystal respectively.
• where MRT(0-t) is a mean value of in-vivo retention time of drug molecules, representing time required for eliminating 63.2% of drugs in vivo; • T1/2 is a terminal elimination half-life, which is time required for a terminal phase plasma concentration to decrease by half; • Tmax is time required to reach a peak concentration of drug after administration, this parameter reflects a speed at which a drug enters the body, and the faster the absorption rate, the shorter the time to peak; • Cmax is a peak concentration of drug, the highest value of a plasma concentration occurring after administration, and this parameter is an important indicator reflecting a rate and degree of drug absorption in the body; • Vd is a proportionality constant between a drug dosage in the body and a plasma concentration when a drug reaches dynamic equilibrium in the body, usually with Las the unit, and this parameter reflects the degree of a distribution range of the drug in the body, with higher values indicating the wider distribution; and an apparent volume of distribution is numerically obtained by a ratio of a clearance rate to a terminal elimination rate; • F is bioavailability, a measure for a speed and degree at which a drug is absorbed into blood circulation, and is an important indicator for evaluating a degree of drug absorption; and the bioavailability may be divided into absolute bioavailability and relative bioavailability, the former is used to compare an absorption difference between two administration routes, while the latter is used to evaluate an absorption difference between two preparations; and • CL is a clearance rate, a value of an apparent volume of distribution of drugs cleared from the body per unit time, usually with L/h as the unit, and this parameter is an important parameter reflecting the body's drug disposal characteristics and is closely related to physiological factors; and the clearance rate is obtained according to a ratio of a dosage to AUC(0-∞).

[2] = test system: rabbits with endotoxic shock; details: serums of rabbits with endotoxic shock; cited from earlier work
[3] = In-vitro release degree in simulated pulmonary fluid (dialysis bag, HPLC); format: physicochemical; details: simulated pulmonary fluid pH 7.4, 37° C.
Description: With the triacetyl andrographolide nanocrystal prepared in Example 1 as an experimental subject, an activated dialysis bag with a molecular weight cut-off of 8000-14000 Da was taken, 5 mL of a simulated pulmonary fluid was added into the dialysis bag, the triacetyl andrographolide nanocrystal (0.5 mg by triacetyl andrographolide) was precisely weighed and dispersively suspended in the above simulated pulmonary fluid, two ends were tightened, then the dialysis bag was put into a conical flask containing 100 mL of a simulated pulmonary fluid in-vitro release medium (composition of the medium as shown in Table 1), the conical flask was placed in a constant-temperature gas bath shaker (37° C., 120 r/min), 2 mL of a released liquor was taken at each of different time points (0.5 h, 1 h, 2 h, 4 h, 6 h, 8 h, 12 h, 24 h, 36 h and 48 h) and was filtered through a 0.22 μm filter membrane, subsequence filtrates were taken to determine drug concentrations by adopting an HPLC method, and at the same time, the release medium was supplemented with 2 mL of an isothermal simulated pulmonary fluid. A cumulative release percentage was calculated according to determined results, and a release curve of the nanocrystal was drawn. […]

[4] = test system: LPS-induced RAW264.7 cell; details: supernatant of LPS-induced RAW264.7 cell culture fluid; cited from earlier work
[5] = in vivo; cited from earlier work

## C=C1CC[C@@H]2[C@](C)(COC(C)=O)[C@H](OC(C)=O)CC[C@@]2(C)[C@@H]1C/C=C1/C(=O)OC[C@H]1OC(C)=O [active pharmaceutical ingredient, triacetyl andrographolide]
[1]
  AUC(0-t): 1924 ± 277.9 ng·h/mL
  CL/F: 2000 mL/min/kg
  Cmax: 495.1 ± 172.6 ng/mL
  MRT(0-t): 8.07 ± 0.22 h
  T1/2: 4.79 ± 1.81 h
  Tmax: 6.67 ± 0.47 h
  Vd: 800 ± 360 L/kg
[2]
  content of IL-1β: can reduce
  content of TNF-α: can reduce
[3]; 12 h
  cumulative release percentage: 39%
[3]; 48 h
  cumulative release percentage: 42%
[4]
  content of IL-1β: can reduce
  content of TNF-α: can reduce
[5]
  absolute bioavailability: 7.19%
  absolute bioavailability relative to that of andrographolide: more than 7 times
